According to ChEMBL document CHEMBL6074691, “Discovery of 22(S)-23-phenyl-24-norchol-5-en-3β,22-diol (PFM046) as the first-in-class, steroidal, non-sulfated Liver X Receptor antagonist with anticancer activity” (Eur J Med Chem, 2025):
Activity calls are given as the source filed them. The calls are words filed in the database; no cut-off is given here.

How the values were obtained:
[1] = target: T1, Oxysterols receptor LXR-alpha (Homo sapiens, UniProt Q13133); assay: Antagonist activity at LXRalpha (unknown origin) by TR-FRET assay
T1 sequence (Q13133 whole entry): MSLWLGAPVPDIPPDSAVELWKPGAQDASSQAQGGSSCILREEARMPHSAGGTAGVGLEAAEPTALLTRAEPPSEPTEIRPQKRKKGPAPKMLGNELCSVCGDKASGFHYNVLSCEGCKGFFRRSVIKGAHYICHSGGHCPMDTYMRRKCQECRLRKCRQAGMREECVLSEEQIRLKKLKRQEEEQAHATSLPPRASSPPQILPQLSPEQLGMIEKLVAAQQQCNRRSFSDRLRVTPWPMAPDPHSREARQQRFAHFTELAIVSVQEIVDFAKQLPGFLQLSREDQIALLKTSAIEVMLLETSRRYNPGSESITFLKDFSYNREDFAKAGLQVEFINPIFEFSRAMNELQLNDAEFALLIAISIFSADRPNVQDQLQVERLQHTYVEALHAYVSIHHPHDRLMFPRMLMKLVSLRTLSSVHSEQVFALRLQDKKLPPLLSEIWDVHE

[2] = target: T1, Oxysterols receptor LXR-alpha; assay: Antagonist activity at LXRalpha (unknown origin)
[3] = tested on: B16-F1; assay: Antitumor activity against mouse B16-F1 cells implanted in C57BL/6 mouse assessed as reduction in tumor volume at 300 to 400 ug, ip administered 5 days per week and measured every 2 to 3 days by caliper method; format: functional, organism-based; settings: dose 300-400 µg
[4] = tested on: Lewis lung carcinoma cell line; assay: Antitumor activity against mouse Lewis lung carcinoma cell line implanted in C57BL/6 mouse assessed as reduction in tumor volume at 300 to 400 ug, ip administered 5 days per week and measured every 2 to 3 days by caliper method; format: functional, organism-based; settings: dose 300-400 µg
[5] = Kinetic solubility of compound in PBS at pH 7.4 by Rapidfire-MS/MS method; format: physicochemical; settings: buffer
[6] = Unbound fraction in human plasma by dialysis method; format: ADME, cell-free
[7] = Unbound fraction in mouse plasma by dialysis method; format: ADME, cell-free
[8] = Hepatic intrinsic clearance in human liver microsomes assessed per mg protein at 0.5 uM in presence of NADPH regenerating system by UHPLC-MS/MS method; format: ADME, Microsome; settings: read-out: CLH
[9] = Hepatic intrinsic clearance in mouse liver microsomes assessed per mg protein at 0.5 uM in presence of NADPH regenerating system by UHPLC-MS/MS method; format: ADME, Microsome; settings: read-out: CLH
[10] = Drug uptake in C57BL/6 mouse at 400 ug, ip measured after 1 hr by UHPLC-MS/MS analysis; format: ADME, organism-based; settings: in vivo, dose 400 µg, read-out: Drug uptake
[11] = Drug uptake in C57BL/6 mouse at 400 ug, ip measured after 3 hrs by UHPLC-MS/MS analysis; format: ADME, organism-based; settings: in vivo, dose 400 µg, read-out: Drug uptake
[12] = Drug uptake in C57BL/6 mouse at 400 ug, ip measured after 6 hrs by UHPLC-MS/MS analysis; format: ADME, organism-based; settings: in vivo, dose 400 µg, read-out: Drug uptake
[13] = Cmax in C57BL/6 mouse at 400 ug, ip by UHPLC-MS/MS analysis; format: ADME, organism-based; settings: in vivo, dose 400 µg
[14] = Tmax in C57BL/6 mouse at 400 ug, ip by UHPLC-MS/MS analysis; format: ADME, organism-based; settings: in vivo, dose 400 µg
[15] = Clast in C57BL/6 mouse at 400 ug, ip by UHPLC-MS/MS analysis; format: ADME, organism-based; settings: in vivo, dose 400 µg
[16] = Tlast in C57BL/6 mouse at 400 ug, ip by UHPLC-MS/MS analysis; format: ADME, organism-based; settings: in vivo, dose 400 µg
[17] = AUClast in C57BL/6 mouse at 400 ug, ip by UHPLC-MS/MS analysis; format: ADME, organism-based; settings: in vivo, dose 400 µg
[18] = Observed AUC infinity in C57BL/6 mouse at 400 ug, ip by UHPLC-MS/MS analysis; format: ADME, organism-based; settings: in vivo, dose 400 µg
[19] = tested on: Mus musculus; assay: Observed extrapolated AUC in C57BL/6 mouse at 400 ug, ip by UHPLC-MS/MS analysis; format: ADME, organism-based; settings: in vivo, at 400 µg
[20] = tested on: Lewis lung carcinoma cell line; assay: Antitumor activity against mouse Lewis lung carcinoma cell line assessed as reduction in cell number at 10 uM incubated for 72 hrs by trypan blue assay; format: functional, cell-based
[21] = Drug uptake in C57BL/6 mouse at 400 ug, ip measured after 24 hrs by UHPLC-MS/MS analysis; format: ADME, organism-based; settings: in vivo, dose 400 µg, read-out: Drug uptake
[22] = tested on: U-937; assay: Downregulation of SREBP-1 expression in human U-937 cells incubated for 72 hrs by qRT-PCR analysis; format: functional, cell-based
[23] = tested on: U-937; assay: Downregulation of SCD1 expression in human U-937 cells incubated for 72 hrs by qRT-PCR analysis; format: functional, cell-based
[24] = tested on: U-937; assay: Downregulation of FASN expression in human U-937 cells incubated for 72 hrs by qRT-PCR analysis; format: functional, cell-based
[25] = tested on: U-937; assay: Upregulation of ABCA1 expression in human U-937 cells incubated for 72 hrs by qRT-PCR analysis; format: functional, cell-based

Compound | IC50 [1] | IC50 [2] | Activity [3] | Activity [4] | Kinetic_solubility [5] | Fu [6] | Fu [7] | microsomal CLint at 0.5 µM [8] | microsomal CLint at 0.5 µM [9] | concentration at 1 h [10] | concentration at 3 h [11] | concentration at 6 h [12] | Cmax [13] | Tmax [14] | Clast [15] | Tlast [16] | AUC(0-t) [17] | further results
CC(C)[C@H](CC[C@@H](C)[C@H]1CC[C@H]2[C@@H]3CC=C4C[C@@H](O)CC[C@]4(C)[C@H]3CC[C@]12C)OS(=O)(=O)O | 0.31 µM |  |  |  |  |  |  |  |  |  |  |  |  |  |  |  |  | 
CC(C)[C@@H](O)CC[C@@H](C)[C@H]1CC[C@H]2[C@@H]3CC=C4C[C@@H](OS(=O)(=O)O)CC[C@]4(C)[C@H]3CC[C@]12C | 0.15 µM |  |  |  |  |  |  |  |  |  |  |  |  |  |  |  |  | 
CC(C)CCC[C@@H](C)[C@H]1CC[C@H]2[C@@H]3C(=O)C=C4C[C@@H](OS(=O)(=O)O)CC[C@]4(C)[C@H]3CC[C@]12C |  | 5 µM |  |  |  |  |  |  |  |  |  |  |  |  |  |  |  | 
CC(C)CC[C@H](O)[C@@H](C)[C@H]1CC[C@H]2[C@@H]3CC=C4C[C@@H](OS(=O)(=O)[O-])CC[C@]4(C)[C@H]3CC[C@]12C.[Na+] |  |  | Active | Active | NotTraceable | < 1% | < 1% | 26.4 µL/min/mg | 17.2 µL/min/mg | 3170 ng/mL | 363 ng/mL | 65.2 ng/mL | 3170 ng/mL | 1 h | 65.2 ng/mL | 6 h | 4690 ng·h/mL | AUC(0-inf) [18]: 4800 ng·h/mL; %AUCextra [19]: 2.5%
C[C@@H]([C@H]1CC[C@H]2[C@@H]3CC=C4C[C@@H](O)CC[C@]4(C)[C@H]3CC[C@]12C)[C@@H](O)Cc1ccccc1 |  |  | Active | Active | NotTraceable | < 1% | < 1% | < 9.9 µL/min/mg | 45.8 µL/min/mg | 68.9 ng/mL | 109 ng/mL | 110 ng/mL | 174 ng/mL | 6 h | 167 ng/mL | 24 h | 3070 ng·h/mL | Activity [20]: Active; concentration at 24 h [21]: 167 ng/mL; Activity [22]: Active; Activity [23]: Active; Activity [24]: Active; Activity [25]: Active
CC(C)CCC[C@@H](C)[C@H]1CC[C@H]2[C@@H]3C[C@@H]4O[C@@]45C[C@@H](OS(=O)(=O)O)CC[C@]5(C)[C@H]3CC[C@]12C |  | 2 µM |  |  |  |  |  |  |  |  |  |  |  |  |  |  |  | 
